Laboratory results: US5166379A, “Synthesis of compounds with biological activity, and methods of use” (Harbor Branch Oceanographic Institution, Inc., priority 1990, dated 1992)
In brackets after ≈: the same amount, converted by molar mass. Where two headings read alike, the source gives them in different places.

How the values were obtained:
[1] = system: murine splenocyte suspensions (BALB/c and C57BL/6J mice); assay: Mixed Lymphocyte Reaction (MLR); format: cell-based; settings: for activity at 0.05 µg/mL / activity at 0.2 µg/mL / activity at 0.8 µg/mL / activity at 3.1 µg/mL / activity at 12.5 µg/mL / activity at 50 µg/mL: Mus musculus, Splenocyte, read-out: % MLR (percentage of positive control)
Method: I. Mixed Lymphocyte Reaction
1. Murine splenocyte suspensions were prepared separately from BALB/c and C57BL/6J mice. […] The cell concentrations were adjusted to 2.5×10^6 cells/ml. Aliquots of each cell population were removed to separate tubes, and the remaining two cell suspensions combined to one tube.
(§1) 2. Serial, log10 dilutions of the pure compound were made in absolute ethanol, and 10 μl of each dilution was added to wells of microtiter test plates, and allowed to dry.
3. A volume of 0.2 ml of the combined splenocyte suspensions was added to triplicate test wells. Positive control wells received combined splenocyte suspensions in the absence of the test compounds. Negative control wells consisted of separate (not mixed) splenocyte suspensions cultured in the absence of the test compounds.
4. Plates were incubated in 5% CO2 at 37° C. for 86 hours.
5. A volume of 0.05 ml of ^3 H-thymidine (20 μCi/ml) was added to each well, and the plates were incubated in 5% CO2 at 37° C. for an additional 5 hours.
6. The contents of each well of the microtiter plates were harvested onto glass fiber filter strips, and the resulting filter discs placed in scintillation vials to which 2.0 ml of scintillation fluid was added.
7. The amount of incorporated ^3 H-thymidine was determined by counting the vials in a liquid scintillation counter.
8. Triplicate counts were averaged, and the data reported as a percentage of the positive control.

[2] = system: lymphoid cells (murine BALB/c splenocytes); assay: Lymphocyte Viability Assay (LCV); format: cell-based
Method: (§2) II. Lymphocyte Viability Assay
(§3) 1. Compounds were similarly tested in parallel with the MLR to determine their toxic effects on lymphoid cells using the lymphocyte viability assay (LCV).
as §1
(§4) 3. Murine splenocyte suspensions were prepared from BALB/c mice. […] The cell concentrations were adjusted to 2.5×10^6 cells/ml.
(§5) 4. A volume of 0.2 ml of the splenocyte suspension was added to replicate test wells. Positive control wells received splenocyte suspensions in the absence of the test compounds.
(§6) 5. Plates were incubated at 37° C. for 86 hours. At the end of the incubation period, a volume of 75 μl of a 2.0 mg/ml solution of MTT was added to each well, and the plates were returned to the incubator for an additional 5 hours.
(§7) 6. The supernatants from each microwell were then removed, and a volume of 200 μl of isopropanol was added and the contents mixed.
(§8) 7. Values were obtained by comparing the optical densities (determined at 570 and 650 nm) of wells containing the test compounds with those of wells containing cells and medium only (positive control). The results are expressed as a percentage of the positive control.
(§9) 8. Replicate counts were averaged, and the data reported as a percentage of the positive control. An LCV value of less than 60% of the positive control is an indication of cytotoxicity of the test compounds for lymphoid cells.

P388 cells = assay: Antiproliferative effects against P388 cells (antitumor, MTT); format: cell-based; settings: for P388 IC50: 48 hour exposure; for IC50: Mus musculus, P388, 48 hour exposure
Method: IV. Antitumor Methodology
To assess the antiproliferative effects against P388 cells, 200 μl cultures (96-well tissue culture plates, Nunc, Denmark) were established at 1×10^5 cells/ml in drug-free medium or medium containing the pure compounds/crude extracts at a final dilution or 1:500 and at various concentrations. Solvent for all dilutions was methanol, which was removed from plates under vacuum. All experimental cultures were initiated in media containing Gentamicin sulfate (50 μg/ml; Schering Corporation, Kenilworth, NJ).
To quantitate the effects of pure compounds/crude extracts on cell proliferation, 75 μl of warm growth medium containing 5 mg/ml MTT was added to each well, cultures were returned to the incubator, and were left undisturbed for 90 minutes. To spectrophotometrically quantitate formation of reduced formazan, plates were centrifuged (900×g, 5 minutes), culture fluids removed by aspiration, and 200 μl of acidified isopropanol (2 ml concentrated HCl/liter isopropanol) added per well. The absorbance of the resulting solutions were measured at 570 nm with a plate reader (MR700 Microplate Reader, Dynatech Laboratories, Chantilly, VA).

[3] = Lymphocyte Viability Assay (LCV); format: cell-based, murine; settings: mouse, splenocytes, read-out: % LCV (percentage of positive control)
Method: as §2, §3, §1, §4, §5, §6, §7, §8, §9

Row | Compound | % MLR (percentage of positive control) ([1]; 0.05 μg/ml) [%] | % MLR (percentage of positive control) ([1]; 0.2 μg/ml) [%] | % MLR (percentage of positive control) ([1]; 0.8 μg/ml) [%] | % MLR (percentage of positive control) ([1]; 3.1 μg/ml) [%] | % MLR (percentage of positive control) ([1]; 12.5 μg/ml) [%] | % MLR (percentage of positive control) ([1]; 50 μg/ml) [%] | % LCV (percentage of positive control) ([2]; 0.05 μg/ml) [%] | activity at 0.05 µg/mL ([1]; 0.05 μg/ml) [%] | activity at 0.2 µg/mL ([1]; 0.2 μg/ml) [%] | activity at 0.8 µg/mL ([1]; 0.8 μg/ml) [%] | activity at 3.1 µg/mL ([1]; 3.1 μg/ml) [%] | activity at 12.5 µg/mL ([1]; 12.5 μg/ml) [%] | activity at 50 µg/mL ([1]; 50 μg/ml) [%] | viability ([3]; 0.05 μg/ml) [%] | viability ([3]; 0.2 μg/ml) [%] | viability ([3]; 0.8 μg/ml) [%] | viability ([3]; 3.1 μg/ml) [%] | viability ([3]; 12.5 μg/ml) [%] | viability ([3]; 50 μg/ml) [%] | IC50 (P388 cells) [µg/mL] | further results
1 | C#CC(O)C=CCCCCC (stereo not shown) [CH3 (CH2)4 CH= CH--CHOH--C≡CH] | 112 | 14 | 82 | 0 | 0 | 0 | 109 |  |  |  |  |  |  |  |  |  |  |  |  |  | % LCV (percentage of positive control) ([2]; 0.2 μg/ml): 121%; % LCV (percentage of positive control) ([2]; 0.8 μg/ml): 119%; % LCV (percentage of positive control) ([2]; 3.1 μg/ml): 89%; % LCV (percentage of positive control) ([2]; 12.5 μg/ml): 65%; % LCV (percentage of positive control) ([2]; 50 μg/ml): 7%; P388 IC50 (P388 cells): 74.0 µg/mL
2 | C#CC(O)C=CCCCCCCCCC (stereo not shown) [CH3 (CH2)8 CH=CH--CHOH--C≡CH] | 120 | 0 | 0 | 0 | 0 | 0 | 35 |  |  |  |  |  |  |  |  |  |  |  |  |  | % LCV (percentage of positive control) ([2]; 0.2 μg/ml): 44%; % LCV (percentage of positive control) ([2]; 0.8 μg/ml): 30%; % LCV (percentage of positive control) ([2]; 3.1 μg/ml): 26%; % LCV (percentage of positive control) ([2]; 12.5 μg/ml): 5%; % LCV (percentage of positive control) ([2]; 50 μg/ml): 0%; P388 IC50 (P388 cells): 27.0 µg/mL
3 | C#CC(/C=C/CCCCCCCCCCCCCCC)OC(C)=O (stereo not shown) [CH3 (CH2)14 CH=CH--CHOAc--C≡CH] |  |  |  |  |  |  |  | 73 | 0 | 0 | 0 | 0 | 0 | 58 | 53 | 30 | 30 | 23 | 11 | 100 (≈ 299 µM) | 
4 | CC#CC(O)/C=C/CCCCCCCCCCCCCCC (stereo not shown) [CH3 (CH2)14 CH=CH--CHOH--C≡C--CH3] |  |  |  |  |  |  |  | 137 | 143 | 83 | 0 | 0 | 0 | 154 | 107 | 75 | 86 | 67 | 60 | 200 (≈ 652 µM) | 
5 | CCCCCCCCCCCCCCC/C=C/C(O)C#N (stereo not shown) [CH3 (CH2)14 CH=CH--CHOH--C≡N] |  |  |  |  |  |  |  | 60 | 89 | 85 | 80 | 0 | 0 | 132 | 135 | 161 | 144 | 77 | 37 | 28 (≈ 95.4 µM) | 
6 | CCCCCCCCCCCCCCC/C=C/C=O [CH3 (CH2)14 CH=CH--CHO] |  |  |  |  |  |  |  | 150 | 105 | 135 | 146 | 0 | 0 | 130 | 175 | 181 | 186 | 89 | 5 | 15.1 (≈ 56.7 µM) | 
7 | C#CC(C)(O)/C=C/CCCCCCCCCCCCCCC (stereo not shown) [CH3 (CH2)14 CH=CH--COH(CH3)--C≡CH] |  |  |  |  |  |  |  | 152 | 161 | 171 | 115 | 65 | 0 | 53 | 107 | 118 | 109 | 54 | 5 | 67 (≈ 219 µM) | 
8 | CCCCCCCCCCCCCCCC=O [CH3 (CH2)14 CHO] |  |  |  |  |  |  |  | 59 | 94 | 80 | 73 | 36 | 0 | 237 | 182 | 161 | 202 | 153 | 132 | 44 (≈ 183 µM) | 
9 | C#CC(O)CCCCCCCCCCCCCCCCC (stereo not shown) [CH3 (CH2)16 CHOH--C≡CH] |  |  |  |  |  |  |  | 0 | 0 | 0 | 0 | 0 | 0 | 61 | 68 | 39 | 56 | 7 | 2 | 48 (≈ 163 µM) | 
10 | C#CC(O)C=CCCCCCCCCCCCCCCCCCCC (stereo not shown) [CH3 (CH2)18 CH=CH--CHOH--C≡CH] | 103 | 103 | 0 | 0 | 0 | 0 | 58 |  |  |  |  |  |  |  |  |  |  |  |  |  | % LCV (percentage of positive control) ([2]; 0.2 μg/ml): 70%; % LCV (percentage of positive control) ([2]; 0.8 μg/ml): 61%; % LCV (percentage of positive control) ([2]; 3.1 μg/ml): 28%; % LCV (percentage of positive control) ([2]; 12.5 μg/ml): 30%; % LCV (percentage of positive control) ([2]; 50 μg/ml): 39%; P388 IC50 (P388 cells): 219 µg/mL
